Here are results for 69 molecules from ChEMBL document CHEMBL1134300, “Oxindole-based inhibitors of cyclin-dependent kinase 2 (CDK2): design, synthesis, enzymatic activities, and X-ray crystallographic analysis” (J Med Chem, 2001).

Test [1] addresses Cyclin-dependent kinase 1 (Homo sapiens, UniProt P06493).
Description: Inhibitory activity against human cyclin-dependent kinase 1 (CDK1)
The target of test [2] is Cyclin-dependent kinase 2 (Homo sapiens, UniProt P24941).
Description: Inhibitory activity against human cyclin-dependent kinase 2 (CDK2)

Structures are written as SMILES. pIC50: −log10 of the molar value.

As usually defined, the pIC50 is the negative decadic logarithm of the IC50, by convention in mol/L. The low end stands for a high IC50, the high end for a low IC50.

Sequence of Cyclin-dependent kinase 1 (P06493 whole entry): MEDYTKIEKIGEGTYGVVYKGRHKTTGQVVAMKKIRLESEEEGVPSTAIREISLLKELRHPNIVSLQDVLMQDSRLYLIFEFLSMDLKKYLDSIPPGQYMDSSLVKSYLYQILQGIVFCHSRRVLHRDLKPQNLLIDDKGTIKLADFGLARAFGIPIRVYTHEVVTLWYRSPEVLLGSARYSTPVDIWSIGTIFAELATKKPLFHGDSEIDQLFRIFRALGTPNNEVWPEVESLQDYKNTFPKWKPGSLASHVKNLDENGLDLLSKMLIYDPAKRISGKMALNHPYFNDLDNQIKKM

In the case of `CNS(=O)(=O)c1ccc(N/C=C2\C(=O)Nc3ccccc32)cc1`, the pIC50 in test [1] was 5.54. Molecule `CNS(=O)(=O)Cc1ccc(NN=C2C(=O)Nc3ccc4ncsc4c32)cc1` showed a pIC50 in test [1] of 7.25. Against the preceding molecule, the pIC50 is 1.71 log units higher. Regarding `O=C1Nc2ccc(-c3cnco3)cc2/C1=C/Nc1ccc2c(c1)CS(=O)(=O)C2`, the pIC50 in test [1] is 7.72; in test [2], 8.05. In turn, `O=C1Nc2ccccc2/C1=C/Nc1ccc(S(=O)(=O)Nc2nccs2)cc1` showed a pIC50 in test [1] of 5.42. On the same count and under the same terms, for `O=C1Nc2ccc3ncsc3c2/C1=C/Nc1ccc(S(=O)(=O)Nc2ccccn2)cc1` the value was 7.00. On to `NS(=O)(=O)c1ccc(NN=C2C(=O)Nc3cccc(CCc4ccncc4)c32)cc1`, for which the pIC50 in test [1] was 6.54; in test [2], 7.68. Turning to `O=C1Nc2ccc3ncsc3c2/C1=C/Nc1ccc(S(=O)(=O)NCc2ccccc2)cc1`, the results for the pIC50 in test [1] and in test [2] were 7.28 and 8.25, respectively.

With `CC(=O)NS(=O)(=O)c1ccc(N/C=C2\C(=O)Nc3ccc4ncsc4c32)cc1`, the figures for the pIC50 in test [1] and in test [2] were 6.04 and 7.12, respectively.

Regarding `O=C1Nc2ccc3ncsc3c2/C1=C/Nc1ccc(S(=O)(=O)Nc2ccccc2)cc1`, the results for the pIC50 in test [1] and in test [2] were 7.39 and 8.37, respectively. On to `CNS(=O)(=O)c1ccc(N/C=C2\C(=O)Nc3ccc4ncsc4c32)cc1`, for which the pIC50 was 7.19 in test [1] and 8.25 in test [2]. `O=C1Nc2ccc3ncsc3c2/C1=C/Nc1ccc(S(=O)(=O)NCCO)cc1`: the pIC50 in test [1] was 7.39; in test [2], 8.33. Turning to `CN(C)S(=O)(=O)c1ccc(N/C=C2\C(=O)Nc3ccc4ncsc4c32)cc1`, the pIC50 in test [1] is 7.30; in test [2], 8.34. In the same order, the values of `CN(C)CCNS(=O)(=O)c1ccc(N/C=C2\C(=O)Nc3ccccc32)cc1` are 5.26 and 6.00. With `COCCOCCOCCOCCN(C)S(=O)(=O)c1ccc(N/C=C2\C(=O)Nc3ccc4ncsc4c32)cc1`, the values for the pIC50 in test [1] and in test [2] were 7.35 and 9.00, respectively. Consider `O=C1Nc2ccc3ncsc3c2/C1=C/Nc1ccc(S(=O)(=O)NCCc2c[nH]cn2)cc1`, for which the pIC50 in test [1] is 7.42; in test [2], 8.44.

With `Cc1cccc(C)c1NS(=O)(=O)c1ccc(N/C=C2\C(=O)Nc3ccc4ncsc4c32)cc1`, the pIC50 in test [1] was 4.85; in test [2], 6.55. Consider `CN(c1ccccn1)S(=O)(=O)c1ccc(N/C=C2\C(=O)Nc3ccc4ncsc4c32)cc1`, for which the pIC50 in test [1] was 7.19; in test [2], 8.25. As to `CNS(=O)(=O)Cc1ccc(N/C=C2\C(=O)Nc3ccc4ncsc4c32)cc1`, the pIC50 in test [1] was 6.77; in test [2] it was 7.59.

As to `NS(=O)(=O)Cc1ccc(N/C=C2\C(=O)Nc3ccc4ncsc4c32)cc1`, the pIC50 in test [1] is 7.00; in test [2], 8.12. Regarding `O=C1Nc2ccc3ncsc3c2/C1=C/Nc1ccc(CS(=O)(=O)NCCO)cc1`, the pIC50 in test [1] was 6.70; in test [2] it was 7.89. `O=C1Nc2ccc3ncsc3c2/C1=C/Nc1ccc(S(=O)(=O)NCCOCCO)cc1`: the pIC50 in test [1] is 7.92; in test [2], 9.27. Taken in the same sequence, the figures for `CS(=O)(=O)c1ccc(N/C=C2\C(=O)Nc3ccc4ncsc4c32)cc1` were 7.41 and 8.24. In turn, `O=C1Nc2ccc3ncsc3c2/C1=C/Nc1ccc(S(=O)(=O)N[n+]2ccc3ccccc3c2)cc1` had a pIC50 in test [1] of 7.38.

In the case of `CS(=O)(=O)Cc1ccc(N/C=C2\C(=O)Nc3ccc4ncsc4c32)cc1`, the pIC50 in test [1] is 5.92; in test [2] it was 7.30.

As for `COc1ccc2c(c1)C(=NNc1ccc(S(N)(=O)=O)cc1)C(=O)N2`, the pIC50 in test [1] was 6.68; in test [2], 7.92. Take `Cc1cc(C)c2c(c1)/C(=C/Nc1ccc(S(N)(=O)=O)cc1)C(=O)N2`: the pIC50 in test [1] and in test [2] was less than 5.00 in each case. On to `NS(=O)(=O)c1ccc(N/C=C2\C(=O)Nc3ccccc32)cc1`, for which the pIC50 in test [1] was 5.52; in test [2], 6.16. As for `NS(=O)(=O)c1ccc(NN=C2C(=O)Nc3ccc4[nH]nc(Cl)c4c32)cc1`, the pIC50 is 7.08 in test [1] and 8.66 in test [2]. Turning to `NS(=O)(=O)c1ccc(N/C=C2\C(=O)Nc3ccc(-c4cnco4)cc32)cc1`, the pIC50 in test [1] was 7.77; in test [2], 8.60. In the case of `COc1cccc(OC)c1CNC(=O)c1ccc2c(c1)C(=NNc1ccc(S(N)(=O)=O)cc1)C(=O)N2`, the pIC50 in test [1] is 8.03; in test [2], 8.77. Take `NS(=O)(=O)c1ccc(N/C=C2\C(=O)Nc3cccc(CO)c32)cc1`: the results for the pIC50 in test [1] and in test [2] were 5.77 and 7.27, respectively. For `CCc1ccc2c(c1)NC(=O)C2=NNc1ccc(S(N)(=O)=O)cc1`, the pIC50 is 6.18 in test [1] and 7.68 in test [2]. For `NS(=O)(=O)c1ccc(NN=C2C(=O)Nc3cc(Br)ccc32)cc1`, the values for the pIC50 in test [1] and in test [2] were 6.28 and 7.37, respectively. Take `CC(C)(C)c1ccc2c(c1)NC(=O)/C2=N\Nc1ccc(S(N)(=O)=O)cc1`: the pIC50 in test [1] and in test [2] was less than 5.00 in each case. In the case of `NC(=O)c1cccc2c1C(=NNc1ccc(S(N)(=O)=O)cc1)C(=O)N2`, the pIC50 in test [1] and in test [2] was less than 6.00 in each case. With `COc1ccc2c(c1Cl)C(=NNc1ccc(S(N)(=O)=O)cc1)C(=O)N2`, the pIC50 is 5.77 in test [1] and 7.27 in test [2]. Turning to `Nc1ccc2c(c1)C(=NNc1ccc(S(N)(=O)=O)cc1)C(=O)N2`, the pIC50 in test [1] was 5.85; in test [2], 7.13. Regarding `NS(=O)(=O)c1ccc(NN=C2C(=O)Nc3ccc(C(=O)NCc4cccnc4)cc32)cc1`, the results for the pIC50 in test [1] and in test [2] were 7.29 and 8.68, respectively. For the molecule `NS(=O)(=O)c1ccc(N/N=C2\C(=O)Nc3cccc(/C=C/c4ccc(O)cc4)c32)cc1`, the pIC50 in test [1] was 6.77. For the molecule `NS(=O)(=O)c1ccc(NN=C2C(=O)Nc3ccc(S(N)(=O)=O)cc32)cc1`, the pIC50 in test [1] was 6.77; in test [2], 7.37.

Take `CS(=O)(=O)c1ccc2c(c1)C(=NNc1ccc(S(N)(=O)=O)cc1)C(=O)N2`: the pIC50 was 6.46 in test [1] and 7.80 in test [2]. Consider `Cc1c([N+](=O)[O-])ccc2c1C(=NNc1ccc(S(N)(=O)=O)cc1)C(=O)N2`, for which the values for the pIC50 in test [1] and in test [2] were 7.06 and 8.34, respectively.

As for `NS(=O)(=O)c1ccc(N/C=C2\C(=O)Nc3ccc(C(=O)O)cc32)cc1`, the pIC50 in test [1] was 6.82; in test [2] it was 7.55. Take `NS(=O)(=O)c1ccc(NN=C2C(=O)Nc3cccc(-c4cc[nH]n4)c32)cc1`: the figures for the pIC50 in test [1] and in test [2] were 6.60 and 7.72, respectively.

Regarding `NS(=O)(=O)c1ccc(NN=C2C(=O)Nc3ccc4[nH]ncc4c32)cc1`, the values for the pIC50 in test [1] and in test [2] were 6.92 and 7.89, respectively. As to `NS(=O)(=O)c1ccc(NN=C2C(=O)Nc3ccc(I)cc32)cc1`, the pIC50 was 7.02 in test [1] and 7.96 in test [2]. In the same order, the values of `NS(=O)(=O)c1ccc(NN=C2C(=O)Nc3ccc(F)cc32)cc1` are 6.54 and 7.47. As for `NS(=O)(=O)c1ccc(/N=N/c2c(O)[nH]c3cccc(I)c23)cc1`, the pIC50 in test [1] is 6.96; in test [2], 8.34. Consider `NS(=O)(=O)c1ccc(N/N=C2\C(=O)Nc3ccc4ncsc4c32)cc1`, for which the pIC50 in test [1] was 7.37; in test [2], 8.15. Take `Cc1cccc2c1NC(=O)/C2=C\Nc1ccc(S(N)(=O)=O)cc1`: the pIC50 in test [1] and in test [2] was less than 5.00 each time. `CCOC(=O)c1cccc2c1/C(=C/Nc1ccc(S(N)(=O)=O)cc1)C(=O)N2`: the pIC50 in test [1] was 6.89; in test [2], 8.05. With `NS(=O)(=O)c1ccc(NN=C2C(=O)Nc3cccc(Oc4ccccc4)c32)cc1`, the pIC50 in test [1] was 6.54; in test [2], 7.89. For `NS(=O)(=O)c1ccc(NN=C2C(=O)Nc3cccc([N+](=O)[O-])c32)cc1`, the pIC50 is less than 6.00 in test [1] and 5.62 in test [2]. Turning to `NS(=O)(=O)c1ccc(NN=C2C(=O)Nc3ccc(O)cc32)cc1`, the pIC50 in test [1] was 7.11; in test [2], 8.00. Taken in the same sequence, the figures for `COC(=O)c1ccc2c(c1)/C(=C/Nc1ccc(S(N)(=O)=O)cc1)C(=O)N2` were 7.92 and 8.68.

Consider `CN(C)C(=O)c1ccc2c(c1)C(=NNc1ccc(S(N)(=O)=O)cc1)C(=O)N2`, for which the pIC50 in test [1] is 6.89; in test [2], 7.77. Take `NS(=O)(=O)c1ccc(N/C=C2\C(=O)Nc3cc(CO)ccc32)cc1`: the pIC50 in test [1] was 6.13; in test [2] it was 7.21. In the same order, the values of `Cc1cc(Cl)cc2c1NC(=O)/C2=C\Nc1ccc(S(N)(=O)=O)cc1` are less than 5.00 and less than 5.00. In the same order, the values of `NC(=O)c1ccc2c(c1)C(=NNc1ccc(S(N)(=O)=O)cc1)C(=O)N2` are 8.55 and 8.35.

As to `CC(C)Cc1cccc2c1C(=NNc1ccc(S(N)(=O)=O)cc1)C(=O)N2`, the pIC50 is 7.72 in test [1] and 8.92 in test [2]. For `CCc1cccc2c1C(=NNc1ccc(S(N)(=O)=O)cc1)C(=O)N2`, the pIC50 was 7.34 in test [1] and 8.10 in test [2]. Take `CC(C)c1cccc2c1C(=NNc1ccc(S(N)(=O)=O)cc1)C(=O)N2`: the values for the pIC50 in test [1] and in test [2] were 7.43 and 8.60, respectively.

Consider `NS(=O)(=O)c1ccc(NN=C2C(=O)Nc3ccc([N+](=O)[O-])cc32)cc1`, for which the pIC50 is 6.15 in test [1] and 7.82 in test [2]. In the same order, the values of `C/C(Nc1ccc(S(N)(=O)=O)cc1)=C1/C(=O)Nc2ccc(-c3cnco3)cc21` are 8.15 and 8.70. Take `NS(=O)(=O)c1ccc(NN=C2C(=O)Nc3ccc(S(=O)(=O)O)cc32)cc1`: the pIC50 was 6.89 in test [1] and 7.82 in test [2]. With `C/C(Nc1ccc(S(N)(=O)=O)cc1)=C1/C(=O)Nc2ccc(Cl)cc21`, the pIC50 in test [1] is 6.66; in test [2] it was 7.66. In the same order, the values of `CC(C)CC(=O)c1ccc2c(c1)/C(=C/Nc1ccc(S(N)(=O)=O)cc1)C(=O)N2` are 7.80 and 8.72. As for `NS(=O)(=O)c1ccc(N/N=C2\C(=O)Nc3ccccc32)cc1`, the pIC50 in test [1] was 5.89; in test [2] it was 6.92. Consider `NS(=O)(=O)c1ccc(N/C=C2\C(=O)Nc3ccc4ncccc4c32)cc1`, for which the results for the pIC50 in test [1] and in test [2] were 7.82 and 8.82, respectively.
